Key:
[1] = H.W. Stewart et al., J. Org. Chem. 1953, 18, 1478; cited from earlier work
activité antifilariale = conditions: H.W. Stewart et al., J. Org. Chem. 1953, 18, 1478; cited from earlier work
[2] = tested on: toxicité de groupe due à l'amphétamine; assay: Antagonism of amphetamine group toxicity (predictive of antipsychotic activity); type: in vivo, souris Charles River CD1; conditions: Mus musculus, ip; mice, compound i.p. 30 min before amphetamine 30 mg/kg i.p.; mortality over 24 h; confidence limits 10,1 - 26,7; read-out: DE50 (limites de confiance) d'antagonisme de la mortalité due à l'amphétamine
Text: L'activité antipsychotique d'un composé représentatif, le monomaléate de 2-(1-pipérazinyl)pyrimidine, a été déterminée dans le test de l'antagonisme de la toxicité de groupe due à l'amphétamine (J.H. Burn et al., Arch. Int. Pharmacodyn. Ther. 1958, 113, 290).
Le moncmaléate de 2-(1-pipérazinyl)pyrimidine a été administré à des doses croissantes par voie intrapéritonéale à des lots de 10 souris Charles River CD1 pesant 20-22 g et groupées dans des cages de 22 cm de long, 12 cm de large et 12 cm de haute. Trente minutes après l'administration, on a injecté par voie intrapéritonéale de l'amphétamine à la dose de 30 mg/kg. La mortalité des animaux a été évaluée durant les 24 h qui ont suivi l'injection d'amphétamine et comparée, dans chaque groupe, à celle du groupe d'animaux témoins n'ayant reçu que le véhicule (sérum physiologique).
Le tableau I ci-dessous montre la dose efficace médiane (DE50) d'antagonisme de la mortalité due à l'amphétamine.

[3] = tested on: catalepsie provoquée par la prochlorpérazine; assay: Antagonism of the onset of prochlorperazine-induced catalepsy (cork test; predictive of antidepressant activity); type: in vivo, rats mâles Wistar; conditions: rats, prochlorperazine 10 mg/kg s.c. 1 h later, read 5 h after
Text: L'activité antidépressive des composés de l'invention a été évaluée dans le test de l'antagonisme vis-à-vis de l'installation de la catalepsie provoquée par la prochlorrérazine (K. Bizière et al., Arzneimittel Forschung, 1982, 32 (II), 824).
Un composé représentatif de l'invention, à savoir le monomaléate de 2-(1-pipérazinyl)pyrimidine, a été administré par voie intrapéritonéale à des groupes de 10 rats mâles Wistar pesant 220-240 g; des animaux de contrôle ont été en même temps traités par du sérum physiologique. Une heure après, les animaux ont reçu, par voie sous-cutanée, de la prochlorpérazine à une dose de […]. Cinq heures après cette administration, le nombre d'animaux cataleptiques a été estimé par le test du bouchon. Ce test consiste à positionner les animaux de telle sorte qu'ils puissent maintenir pendant au moins 20 seconds leurs pattes en appui sur une colonne formée de trois bouchons de liège superposés (hauteur totale 11 cm). Les performances réalisées pour chaque groupe d'animaux ont été comparées à celles du croupe d'animaux témoins n'ayant reçu que le véhicule et la prochlorpérazine.
Le tableau II ci-dessous montre le pourcentage d'antagonisme de l'installation de la catalepsie provoquée par la prochlorpérazine.

| SMILES | activité analgésique [1] | activité antifilariale (activité antifilariale) | ED50 [2] [mg/kg] | % d'antagonisme de l'installation de la catalepsie provoquée par la prochlorpérazine ([3]; dose 0,1 mg/kg i.p.) [%] | % d'antagonisme de l'installation de la catalepsie provoquée par la prochlorpérazine ([3]; dose 1 mg/kg i.p.) [%] |
| --- | --- | --- | --- | --- | --- |
| c1cnc(N2CCNCC2)nc1 [2-(l-pipérazinyl)pyrimidine] | aucun n'a montré d'activité | aucun n'a montré d'activité | – | – | – |
| c1cnc(N2CCNCC2)nc1 [2-(1-pipérazinyl)pyrimidine monomaléate, monomaléatede 2-(1-pipérazinyl)pyrimidine] | – | – | 16.5 | 20 | 80 |
